# Measured values taken from the NIST ThermoML archive (doi:10.1021/acs.jced.8b00125).
# Numbers after ± are expanded uncertainties.
# Settings: Liquid, Closed cell (Static) method
SMILES,vapor or sublimation pressure (303.15 K),vapor or sublimation pressure (313.15 K),vapor or sublimation pressure (323.15 K),vapor or sublimation pressure (333.15 K),vapor or sublimation pressure (343.15 K),vapor or sublimation pressure (353.15 K),vapor or sublimation pressure (363.15 K),vapor or sublimation pressure (373.15 K),vapor or sublimation pressure (383.15 K),vapor or sublimation pressure (393.15 K)
CCCCCCC [heptane],7.9 ± 1 kPa,12.4 ± 1 kPa,19 ± 1 kPa,28.2 ± 1 kPa,40.6 ± 1 kPa,57.1 ± 1.1 kPa,,,,
CCCCCCCCCCCC [dodecane],,,,,0.4 kPa,0.7 ± 1 kPa,1.2 ± 1 kPa,2 ± 1 kPa,3.2 ± 1 kPa,4.9 ± 1 kPa
CCCCCCCCCC [decane],0.2 kPa,0.6 ± 1 kPa,1 ± 1 kPa,1.7 ± 1 kPa,2.7 ± 1 kPa,4.3 ± 1 kPa,6.6 ± 1 kPa,9.9 ± 1 kPa,14.4 ± 1 kPa,20.6 ± 1 kPa

# Further lines, results first:
vapor or sublimation pressure (303.15 K),vapor or sublimation pressure (313.15 K),vapor or sublimation pressure (323.15 K),vapor or sublimation pressure (333.15 K),vapor or sublimation pressure (343.15 K),vapor or sublimation pressure (353.15 K),vapor or sublimation pressure (363.15 K),vapor or sublimation pressure (373.15 K),vapor or sublimation pressure (383.15 K),vapor or sublimation pressure (393.15 K),SMILES
2.1 ± 1 kPa,3.7 ± 1 kPa,6 ± 1 kPa,9.3 ± 1 kPa,13.9 ± 1 kPa,20.4 ± 1 kPa,28.9 ± 1 kPa,40.3 ± 1 kPa,54.8 ± 1.1 kPa,73.2 ± 1.1 kPa,CCC1CCCCC1 [ethylcyclohexane]
16.4 ± 1 kPa,24.7 ± 1 kPa,36.4 ± 1 kPa,52 ± 1.1 kPa,72.5 ± 1.1 kPa,,,,,,C1CCCCC1 [cyclohexane]
7.9 ± 1 kPa,12.3 ± 1 kPa,18.5 ± 1 kPa,27.1 ± 1 kPa,38.7 ± 1 kPa,53.8 ± 1.1 kPa,73.3 ± 1.1 kPa,,,,CC1CCCCC1 [methylcyclohexane]
